We go through 19 compounds from patent US20260193249A1, “PREPARATION OF PYRAZOLOPYRIDINE AND TRIAZOLOPYRIDINE DERIVATIVES AS NOVEL DIACYLGLYCERIDE O-ACYLTRANSFERASE 2 INHIBITORS” (Merck Sharp & Dohme LLC, priority 2022, published 2026).

SMILES strings stand for the structures.

The target of this experiment is T1, human DGAT2 (Homo sapiens, UniProt Q96PD7).
T1 construct: made in house; host or cells: Sf-9 insect cells (baculovirus), membrane fraction
T1 sequence (Q96PD7 1-388): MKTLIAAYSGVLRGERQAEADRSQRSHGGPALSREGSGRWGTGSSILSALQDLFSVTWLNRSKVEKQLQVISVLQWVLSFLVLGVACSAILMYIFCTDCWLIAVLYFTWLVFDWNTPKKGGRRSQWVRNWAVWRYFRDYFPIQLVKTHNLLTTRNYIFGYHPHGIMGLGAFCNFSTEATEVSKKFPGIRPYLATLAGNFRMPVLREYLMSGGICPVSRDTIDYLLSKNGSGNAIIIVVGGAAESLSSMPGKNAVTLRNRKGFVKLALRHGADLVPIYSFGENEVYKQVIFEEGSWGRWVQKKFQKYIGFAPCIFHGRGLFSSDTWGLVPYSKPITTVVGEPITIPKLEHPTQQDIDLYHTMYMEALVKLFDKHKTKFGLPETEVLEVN
The experiment can be described thus: DGAT2 Enzymatic Activity Assay. Conditions: membrane prep of Sf-9 insect cells expressing hDGAT2; 13C18-triolein product by LC/MS/MS; 25 μM diolein, 5 μM 13C oleoyl-CoA. It is filed as biochemical. The procedure: Sf-9 insect cells were maintained in Grace's insect cell culture medium with 10% heated-inactivated fetal bovine serum, 1% Pluronic F-68 and 0.14 μg/ml Kanamycine sulfate at 27° C. in a shaker incubator. After infection with untagged baculovirus expressing human DGAT2 (hDGAT2) at multiplicity of infection (MOI) 3 for 48 hours, cells were harvested. Cell pellets were suspended in buffer containing 10 mM Tris-HCl pH 7.5, 1 mM EDTA, 250 mM sucrose and Complete Protease Inhibitor Cocktail (Sigma Aldrich), and sonicated on ice. Cell debris were removed by centrifugation at 2000×g for 15 minutes. Membrane fractions were isolated by ultracentrifugation (100,000×g), resuspended in the same buffer, and frozen (−80° C.) for later use. The protein concentration was determined with the Pierce™ BCA Protein Assay Kit (Thermo Fisher Scientific).
LC/MS/MS analyses were performed using Thermal Fisher's LX4-TSQ Vantage system. This system consists of an Agilent binary high-performance liquid chromatography (HPLC) pump and a TSQ Vantage triple quadrupole MS/MS instrument. For each sample, 2 μL samples from the top organic layer of in-plate liquid-liquid extraction were injected onto a Thermo Betabasic C4 column (2.1 mm×20 mm, 5 μm particle size). The samples were then eluted using the following conditions; mobile phase: Isopropanol:acetonitrile/10 mM ammonium formate=50/35/15 (v/v/v), flow rate: 0.8 mL/min, temperature: 25° C. Data was acquired in positive mode using a heated electrospray ionization (HESI) interface. […] The peak area was integrated by Xcalibur Quan software. The ratio between the ^13C18triolein generated in the reaction and spiked in internal standard ^13C21-triolein was used to generate percentage inhibition and IC50 values. Compound percentage inhibition was calculated by the following formula: Inhibition %=1−[(compound response−low control)/(high control−low control)]×100%.
DGAT2 activity was determined by measuring the amount of enzymatic product ^13C18-triolein (^13C-1,2,3-Tri(cis-9-octadecenoyl)glycerol) using the membrane prep mentioned above. The assay was carried out in ABgene 384-well assay plates in a final volume of 25 μL at rt.
`CC1(NC(=O)c2nn3ccc(Oc4ncc(F)cc4OCC(F)(F)F)cc3c2N)CCS(=O)(=O)CC1` [Example 55, 3-Amino-5-((5-fluoro-3-(2,2,2-trifluoroethoxy)pyridin-2-yl)oxy)-N-(4-methyl-1,1-dioxidotetrahydro-2H-thiopyran-4-yl)pyrazolo[1,5-a]pyridine-2-carboxamide]: half-maximal inhibition (IC50) required 16 nM.
Turning to `CC1(NC(=O)c2cc3cc(Oc4ncc(Cl)cc4OCC(F)(F)F)ccn3n2)CS(=O)(=O)C1` [Example 15, 5-((5-Chloro-3-(2,2,2-trifluoroethoxy)pyridin-2-yl)oxy)-N-(3-methyl-1,1-dioxidothietan-3-yl)pyrazolo[1,5-a]pyridine-2-carboxamide], half-maximal inhibition (IC50) was put at 2.5 nM.
In turn, `CC1(NC(=O)c2nc3cc(Oc4ncc(Cl)cc4OCC(F)(F)F)ccn3n2)CCS(=O)(=O)CC1` [Example 63, 7-((5-Chloro-3-(2,2,2-trifluoroethoxy)pyridin-2-yl)oxy)-N-(4-methyl-1,1-dioxidotetrahydro-2H-thiopyran-4-yl)-[1,2,4]triazolo[1,5-a]pyridine-2-carboxamide] yielded an IC50 of 349 nM.
Compound `C[C@@]1(NC(=O)c2nn3ccc(Oc4ncccc4OCC(F)(F)F)cc3c2Cl)CCS(=O)(=O)C1` [Example 26, (R)-3-Chloro-N-(3-methyl-1,1-dioxidotetrahydrothiophen-3-yl)-5-((3-(2,2,2-trifluoroethoxy)pyridin-2-yl)oxy)pyrazolo[1,5-a]pyridine-2-carboxamide] had an IC50 of 388 nM.
Compound `O=C(NC1CCCN(CC(F)(F)F)C1=O)c1cc2cc(Oc3ncccc3OCC(F)(F)F)ccn2n1` (stereo not shown) [Example 4, N-(2-Oxo-1-(2,2,2-trifluoroethyl)piperidin-3-yl)-5-((3-(2,2,2-trifluoroethoxy)pyridin-2-yl)oxy)pyrazolo[1,5-a]pyridine-2-carboxamide] came in with an IC50 of 309 nM.
Turning to `C[C@@]1(NC(=O)c2cc3cc(Oc4ncc(F)cc4OCC(F)(F)F)ccn3n2)CCS(=O)(=O)C1` [Example 18, (R)-5-((5-Fluoro-3-(2,2,2-trifluoroethoxy)pyridin-2-yl)oxy)-N-(3-methyl-1,1-dioxidotetrahydrothiophen-3-yl)pyrazolo[1,5-a]pyridine-2-carboxamide], it took 33 nM to reach half-maximal inhibition (IC50).
Compound `CC1(NC(=O)c2cc3cc(Oc4ncc(F)cc4OC4CC4)ccn3n2)CCS(=O)(=O)CC1` [Example 10, 5-((3-Cyclopropoxy-5-fluoropyridin-2-yl)oxy)-N-(4-methyl-1,1-dioxidotetrahydro-2H-thiopyran-4-yl)pyrazolo[1,5-a]pyridine-2-carboxamide] showed an IC50 of 85 nM.
The figure for `Cc1c(Oc2ncc(F)cc2OCC(F)(F)F)ccn2nc(C(=O)NC3(C)CCS(=O)(=O)CC3)cc12` [Example 58, 5-((5-Fluoro-3-(2,2,2-trifluoroethoxy)pyridin-2-yl)oxy)-4-methyl-N-(4-methyl-1,1-dioxidotetrahydro-2H-thiopyran-4-yl)pyrazolo[1,5-a]pyridine-2-carboxamide] is 6.6 nM; for `CC1(NC(=O)c2nn3ccc(Oc4ncc(F)cc4OCC(F)(F)F)cc3c2C2CC2)CCS(=O)(=O)CC1` [Example 54, 3-cyclopropyl-5-((5-fluoro-3-(2,2,2-trifluoroethoxy)pyridin-2-yl)oxy)-N-(4-methyl-1,1-dioxidotetrahydro-2H-thiopyran-4-yl)pyrazolo[1,5-a]pyridine-2-carboxamide] it is 48 nM; for `CC1(NC(=O)c2nn3ccc(Oc4ncccc4OCC(F)(F)F)cc3c2F)CS(=O)(=O)C1` [Example 22, 3-Fluoro-N-(3-methyl-1,1-dioxidothietan-3-yl)-5-((3-(2,2,2-trifluoroethoxy)pyridin-2-yl)oxy)pyrazolo[1,5-a]pyridine-2-carboxamide] it is 372 nM.
Regarding `CC1(NC(=O)c2cc3nc(Oc4ncc(Cl)cc4OCC(F)F)ccn3n2)CCS(=O)(=O)CC1` [Example 62, 5-((5-Chloro-3-(2,2-difluoroethoxy)pyridin-2-yl)oxy)-N-(4-methyl-1,1-dioxidotetrahydro-2H-thiopyran-4-yl)pyrazolo[1,5-a]pyrimidine-2-carboxamide], inhibition was half-maximal at 86 nM (IC50).
As for `CC(O)c1c(C(=O)NC2(C)CCS(=O)(=O)CC2)nn2ccc(Oc3ncccc3OCC(F)(F)F)cc12` (single isomer, unassigned) [Example 52a, 3-(1-Hydroxyethyl)-N-(4-methyl-1,1-dioxidotetrahydro-2H-thiopyran-4-yl)-5-((3-(2,2,2-trifluoroethoxy)pyridin-2-yl)oxy)pyrazolo[1,5-a]pyridine-2-carboxamide], the half-inhibitory concentration (IC50) was 1590 nM.
`CC1(NC(=O)c2cc3cc(Oc4ncccc4OCC(F)(F)F)ccn3n2)CCS(=O)(=O)CC1` [Example 1, N-(4-Methyl-1,1-dioxidotetrahydro-2H-thiopyran-4-yl)-5-((3-(2,2,2-trifluoroethoxy)pyridin-2-yl)oxy)pyrazolo[1,5-a]pyridine-2-carboxamide]: half-maximal inhibition (IC50) required 9.7 nM.
For the compound `CC1(NC(=O)c2cc3cc(Oc4ncc(C#N)cc4OCC(F)(F)F)ccn3n2)CCS(=O)(=O)CC1` [Example 42, 5-((5-Cyano-3-(2,2,2-trifluoroethoxy)pyridin-2-yl)oxy)-N-(4-methyl-1,1-dioxidotetrahydro-2H-thiopyran-4-yl)pyrazolo[1,5-a]pyridine-2-carboxamide], half-maximal inhibition (IC50) was put at 20 nM.
In turn, `C[C@]1(NC(=O)c2nn3ccc(Oc4ncccc4OCC(F)(F)F)cc3c2Cl)CCS(=O)(=O)C1` [Example 27, (S)-3-Chloro-N-(3-methyl-1,1-dioxidotetrahydrothiophen-3-yl)-5-((3-(2,2,2-trifluoroethoxy)pyridin-2-yl)oxy)pyrazolo[1,5-a]pyridine-2-carboxamide] registered an IC50 of 400 nM.
As for `CC1(NC(=O)c2nn3ccc(Oc4nccnc4OCC(F)(F)F)cc3c2Cl)CCS(=O)(=O)CC1` [Example 35, 3-Chloro-N-(4-methyl-1,1-dioxidotetrahydro-2H-thiopyran-4-yl)-5-((3-(2,2,2-trifluoroethoxy)pyrazin-2-yl)oxy)pyrazolo[1,5-a]pyridine-2-carboxamide], the IC50 was found to be 18 nM.
In the case of `CC1(NC(=O)c2cc3cc(Oc4ncc(C(O)C(F)(F)F)cc4OCC(F)(F)F)ccn3n2)CS(=O)(=O)C1` (single isomer, unassigned) [Example 45a, N-(3-Methyl-1,1-dioxidothietan-3-yl)-5-((5-(2,2,2-trifluoro-1-hydroxyethyl)-3-(2,2,2-trifluoroethoxy)pyridin-2-yl)oxy)pyrazolo[1,5-a]pyridine-2-carboxamide], the IC50 is over 9990 nM.
On to `CC(O)c1cnc(Oc2ccn3nc(C(=O)NC4(C)CCS(=O)(=O)CC4)cc3c2)c(OCC(F)(F)F)c1` (single isomer, unassigned) [Example 44b, 5-((5-(1-Hydroxyethyl)-3-(2,2,2-trifluoroethoxy)pyridin-2-yl)oxy)-N-(4-methyl-1,1-dioxidotetrahydro-2H-thiopyran-4-yl)pyrazolo[1,5-a]pyridine-2-carboxamide], for which 332 nM corresponded to half-maximal inhibition (IC50).
For the compound `CC1(NC(=O)c2nn3ccc(Oc4ncc(F)cc4OCC(F)(F)F)cc3c2F)CS(=O)(=O)C1` [Example 28, 3-Fluoro-5-((5-fluoro-3-(2,2,2-trifluoroethoxy)pyridin-2-yl)oxy)-N-(3-methyl-1,1-dioxidothietan-3-yl)pyrazolo[1,5-a]pyridine-2-carboxamide], the IC50 turned out to be 129 nM.

What is called IC50 is the concentration that inhibits the measured activity by half. Read a high IC50 as lower potency.
